This is an account of results in US6174875A, “Benzoquinoid ansamycins for the treatment of cardiac arrest and stroke” (priority 1999, dated 2001).

Data set [1] concerns cultured neurons. Particulars: cited from earlier work.
Data set [2] is described as follows: in vivo. The conditions noted are these: mouse, iv, 60 mg/kg. As for the experimental part:
17-allylaminogeldanamycin (17-AAG) (60 mg/kg) was administered to CD2F1 mice by intravenous (iv) injection. Brain levels of 17-AAG were determined at various time points after administration.

In data set [3] the test system is HT22 cells. In words: MTT viability assay of glutamate-treated HT22 cells. The conditions noted are these: 0.5 μg/ml herbimycin A (FIG. 2). It counts as cell-based, mouse. As for the experimental part:
HT22 cells were seeded on 60 mm tissue culture dishes at 300,000 cells per dish and grown overnight. Cells were then incubated in the presence of 5 mM glutamate for 20 hours. […] In order to provide a more accurate assessment of glutamate-induced oxidative toxicity, the ability of HT22 cells to metabolize 3-(4,5-[…]-2-yl)-2,5-diphenyl tetrazolium bromide (MTT) was assayed. The reduction of this dye by viable cells can easily be detected spectrophotometrically as described by Mosman (1983) J. Immunol. Methods 65:55 with reduced HT22 cell viability directly correlated with decreased metabolism of MTT (Shubert et al. (1992) Proc. Natl. Acad. Sci. USA 89:8264). HT22 cells were seeded on 96-well plates at 5,000 cells per well and grown for 12 hours. Cells were then treated with 2 mM, 5 mM or 10 mM concentrations of glutamate. […] After a total incubation period of 20 hours, cell viability was measured using an MTT assay as described by Li et al. (1997) Neuron 19:453. Briefly, 10 μl of MTT solution (5 mg/ml) was added to each well and cells incubated for an additional 4 hours. 100 μl of solubilization solution (50% dimethylformamide and 20% SDS, pH 4.8) was added and left on the cells 5 overnight, after which light absorption at 570 nm was measured. Values (% Viability) represent the average of quadruplicate (FIG. 1) or triplicate (FIG. 2) determinations±S.D. Similar results were obtained in a replicate experiment. Cell viability was expressed relative to control cells treated with GA or Herb alone.

Data set [4] concerns hsp70 in fibroblasts. Particulars: cited from earlier work.
Data set [5] concerns heat shock proteins in myogenic H9c2 cells. Particulars: cited from earlier work.
In data set [6] the test system is heat shock proteins in rat cardiomyocytes. Particulars: cited from earlier work.
For data set [7], the system named is myogenic H9c2 cells and cardiomyocytes. The conditions noted are these: pretreatment; cited from earlier work.

On to `CC(=O)Oc1ccccc1C(=O)O` [aspirin], for which the “protection of cultured neurons from oxidative toxicity” value in data set [1] is listed as “protect cultured neurons from this form of toxicity”.
Take vitamin E: in data set [1], the “protection of cultured neurons from oxidative toxicity” value is given as “protect cultured neurons from this form of toxicity”.
As to `C=CCNC1=C2CC(C)CC(OC)C(O)C(C)C=C(C)C(OC(N)=O)C(OC)C=CC=C(C)C(=O)NC(=CC1=O)C2=O` (stereo not shown) [17-AAG, 17-allylaminogeldanamycin], the concentration at 24 h in data set [2] is 100 ng/g.
Regarding `COC1C=CC=C(C)C(=O)NC2=CC(=O)C=C(C2=O)C(OC)C(C)CC(OC)C(OC)C(C)C=C(C)C1OC(N)=O` (stereo not shown) [herbimycin A], in data set [3], the “protection from glutamate-induced oxidative toxicity (MTT viability)” value was “protected HT22 cells from the glutamate-induced oxidative toxicity”. Further, the “induction of hsp70 expression in fibroblasts” value in data set [4] was “induce hsp70 expression”. The “induction of hsp70 expression in a myogenic cell line” value in data set [5] is “induce hsp70 expression”. Besides, the “overexpression of heat shock proteins in myogenic H9c2 cells” value in data set [5] (pretreatment) is “overexpression of heat shock proteins”. Besides, the “induction of hsp70 expression in rat cardiomyocytes” value in data set [6] is “induce hsp70 expression”. Moreover, the “overexpression of heat shock proteins in cardiomyocytes” value in data set [6] (pretreatment) is “overexpression of heat shock proteins”. Moreover, the “protection against simulated ischemia” value in data set [7] was “conferred protection against simulated ischemia”.
